Source: US6284918A, “Selective inhibitors of prostaglandin endoperoxide synthase-2” (priority 1999, dated 2001)

Tests used:
[1] = tested on: PGHS-2 in activated RAW264.7 macrophages; test: Inhibition of PGHS-2 in activated RAW264.7 macrophages; assay type: cell-based, murine; settings: RAW 264.7, LPS and γ-interferon; for inhibitory effect on PGHS-2 in activated macrophages compared with aspirin: FIGS. 14 and 15, aspirin 100 μM; for inhibition of cyclooxygenase activity in activated macrophages: FIG. 16
Protocol: RAW 264.7 cells were activated for 7 hours at 37° C. in serum free DMEM with LPS (500 ng/mL) and γ-interferon (10 U/mL).
RAW 264.7 cells were activated for 7 hours at 37° C. in serum free DMEM with LPS (500 ng/mL) and γ-interferon (10 U/mL). […] The cyclooxygenase reaction was initiated by adding [1-^14 C]-arachidonic acid (20 μM) for 15 min at 37° C.
The murine macrophage cell line RAW264.7 were seeded overnight for 30% confluency the following morning. Overnight DMEM and fetal bovine serum (FBS) was removed and 2 mL DMEM containing 1.5% FBS±500 ng/mL LPS and 10 units/mL interferon-γ were added for 7.5 hours at 37° C. […] Arachidonic acid metabolism was measured by adding 20 μM 14C-AA for 15 min at room temperature. Aliquots (200 μL) were removed into termination solution and run on TLC plates. In the case of 2-acetoxythioanisole (2), following 8 hours of activation, 500 μM 2 was added for the next 3.5 hours. After 11.5 hours of activation, 20 μM [1-^14 C]arachidonic acid was incubated with the cells for 20 minutes at room temperature, and total products were determined by TLC.

apo- and holoPGHS-2 = test: Inactivation of cyclooxygenase activity of apo- and holoPGHS-2 and reactivation by hydroxylamine; assay type: biochemical, human; settings: 10 mM inhibitor, pH 8, 37° C.
Protocol: Apo or HoloPGHS-2 ([…]) was inactivated with a 1000-fold excess of 2-acetoxythioanisole (2) at 22.5° C. in 100 mM Tris-HCl buffer, pH 8 containing […] phenol for the indicated time period, and then hydroxylamine (80 mM) in 10 mM Tris-HCl buffer, pH 7.5 was added as indicated by the arrow. Periodic 0.16 μM aliquots of holoPGHS-2 (open circles), holoPGHS-2+2-acetoxythioanisole (open squares), apoPGHS-2 (closed circles), apoPGHS-2+2-acetoxythioanisole (closed squares) were analyzed for remaining cyclooxygenase activity.
(§1) Oxygen consumption was measured at 37° C. with a Gilson model 5/6 oxygraph (Gilson Medical Electronics, Inc., Middleton, Wis.) equipped with a clark electrode and a thermostated cuvette. […] Oxygen uptake was initiated by the addition of 100 μM sodium arachidonate, and the initial reaction velocity was determined from the linear portion of the oxygen uptake curve.
ApoPGHS-2 (5 μM) or apoPGHS-2 (5 μM), reconstituted with 2 equivalents of hematin in 100 mM Tris-HCl, pH 8 at 37° C. containing 500 μM phenol was treated with 2-acetoxy-1-thioanisole (10 mM). Periodically, 0.16 μM enzyme aliquots were analyzed for remaining cyclooxygenase activity as described earlier. […] Hydroxylamine hydrochloride (80 mM) in 10 mM Tris-HCl, pH 7.5 was then added to the incubation mixture and 0.16 μM enzyme aliquots were analyzed for reactivation of the inhibited cyclooxygenase-2. […]

holoPGHS-2 = test: pH dependence of time-dependent inhibition of cyclooxygenase activity of holoPGHS-2, oxygen uptake assay; assay type: biochemical, human
Protocol: ApoPGHS-2 (5 μM, 1.62 μg/μL) in 100 mM sodium phosphate buffer of pH 6, 7, 8, and 9 was reconstituted with 2 equivalents of hematin. Compound 2 (1000-fold excess) in DMSO was added to the reaction mixture. Periodically, 0.16 μM enzyme aliquots (final inhibitor concentration ~178 μM) were analyzed for remaining cyclooxygenase activity. Open circles, cyclooxygenase activity of holoPGHS-2 treated with 2 at pH 6; closed circles, cyclooxygenase activity of holoPGHS-2+2 at pH 7; open squares, cyclooxygenase activity of holoPGHS-2+2 at pH 8; closed squares, cyclooxygenase activity of holoPGHS-2+2 at pH 9. Control experiments in the absence of inhibitor remained linear throughout the assay period.
ApoPGHS-2 (5 μM, 1.62 μg/μL) in 100 mM sodium phosphate buffer of pH 6, 7, 8, and 9 was reconstituted with 2 equivalents of hematin. Compound 54 (181 μM) in DMSO was added to the reaction mixture. Periodically, 0.16 μM enzyme aliquots (final inhibitor concentration ~6 μM) were analyzed for remaining cyclooxygenase activity. […]
as §1, with “curve. […]” for “curve.”

human PGHS-2 = target: T1, human PGHS-2 (Homo sapiens, UniProt P35354); test: Time- and concentration-dependent inhibition of human PGHS-2, TLC assay (3 h preincubation); assay type: biochemical; settings: for IC50 / IC50 (PGHS-1)/IC50 (PGHS-2): Table 2; for IC50: PGHS-2 88 nM; for IC50 (PGHS-1)/IC50 (PGHS-2): selectivity ratio, 180 min
T1 construct: made in house; host or cells: insect cells (baculovirus vectors)
T1 sequence (P35354 18-604): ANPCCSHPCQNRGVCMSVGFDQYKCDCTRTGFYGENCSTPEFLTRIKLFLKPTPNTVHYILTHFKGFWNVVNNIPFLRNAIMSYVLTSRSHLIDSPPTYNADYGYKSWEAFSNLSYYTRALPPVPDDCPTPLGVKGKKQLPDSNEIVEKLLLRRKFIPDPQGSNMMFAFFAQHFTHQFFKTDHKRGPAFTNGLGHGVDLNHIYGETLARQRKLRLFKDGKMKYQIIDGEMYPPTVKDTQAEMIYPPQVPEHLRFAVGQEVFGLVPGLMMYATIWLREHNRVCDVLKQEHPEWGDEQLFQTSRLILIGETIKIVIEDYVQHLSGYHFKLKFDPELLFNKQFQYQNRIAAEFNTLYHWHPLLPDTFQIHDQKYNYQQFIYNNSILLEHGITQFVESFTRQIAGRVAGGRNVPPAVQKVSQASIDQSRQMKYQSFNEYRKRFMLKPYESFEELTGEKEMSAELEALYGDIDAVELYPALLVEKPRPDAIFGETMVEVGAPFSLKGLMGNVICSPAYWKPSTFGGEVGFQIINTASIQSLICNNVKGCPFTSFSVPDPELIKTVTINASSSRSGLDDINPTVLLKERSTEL
Protocol: (§2) Cyclooxygenase activity of ovine PGHS-1 (22 nM) or human PGHS-2 (88 nM) was assayed by TLC. Reaction mixtures of 200 μL consisted of hematin-reconstituted protein in 100 mM Tris-HCl, pH 8.0, 500 μM phenol, and [1-^14 C]arachidonic acid (50 μM, 57 mCi/mmol). For the time-dependent inhibition assay, hematin-reconstituted PGHS-1 (22 nM) or PGHS-2 (88 nM) was preincubated at room temperature for 2 hours and then at 0° C. for 1 hour with varying concentrations of inhibitor in DMSO followed by the addition of [1-^14 C]arachidonic acid (50 μM) for 30 seconds at 37° C. Reactions were terminated by solvent extraction in diethyl ether/methanol/1 M citrate, pH 4.0 (30:4:1). The organic phase was spotted on a TLC plate (Amersham Corp.). The plate was developed with ethyl acetate/methylene chloride/glacial acetic acid (75:25:1) at 4° C. Radiolabeled products were quantitated with a radioactivity scanner (Bioscan, Inc., Washington, D.C.).
(§3) conducted at room temperature for 3 hours. The cyclooxygenase reaction was
(§4) initiated by the addition of 14C-arachidonic acid (50 μM) to the
(§5) incubation mixtures at 37 C for 30 seconds.
(§6) conducted at room temperature for 3 hours. The cyclooygenase reaction was
(§7) initiated by the addition of ^14 C-arachidonic acid ([…]) to the
(§8) incubation mixtures at 37° C. for 30 sec.

ovine PGHS-1 [2] = target: T2, ovine PGHS-1 (Ovis aries, UniProt P05979); test: Time- and concentration-dependent inhibition of ovine PGHS-1, TLC assay (3 h preincubation); assay type: biochemical; settings: Table 2; PGHS-1 22 nM, 3 h at room temperature
T2 construct: PGHS-1 was purified from sheep seminal vesicles as described earlier; tissue Oxford Biomedical Research, Inc. (supplier of the sheep seminal vesicles); host or cells: sheep seminal vesicles
T2 sequence (P05979 25-600): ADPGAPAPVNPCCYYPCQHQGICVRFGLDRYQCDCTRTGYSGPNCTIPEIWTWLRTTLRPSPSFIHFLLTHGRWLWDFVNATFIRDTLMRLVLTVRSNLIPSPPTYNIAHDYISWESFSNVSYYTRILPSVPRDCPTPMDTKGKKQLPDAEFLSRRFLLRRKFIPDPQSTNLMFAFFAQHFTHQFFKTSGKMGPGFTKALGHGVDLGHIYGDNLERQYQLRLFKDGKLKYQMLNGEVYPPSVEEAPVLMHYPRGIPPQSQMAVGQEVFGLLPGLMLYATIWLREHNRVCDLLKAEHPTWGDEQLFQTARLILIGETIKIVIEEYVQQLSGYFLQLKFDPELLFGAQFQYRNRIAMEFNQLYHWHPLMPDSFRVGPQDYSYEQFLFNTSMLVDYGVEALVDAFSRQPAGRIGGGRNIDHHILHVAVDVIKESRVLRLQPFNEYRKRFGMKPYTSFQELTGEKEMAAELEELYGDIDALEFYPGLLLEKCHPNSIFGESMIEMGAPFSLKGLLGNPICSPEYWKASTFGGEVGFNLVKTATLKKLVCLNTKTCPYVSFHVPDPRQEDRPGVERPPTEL
Protocol: as §2, §3, §4, §5, §6, §7, §8

apoPGHS-1 = test: Inhibition of cyclooxygenase activity of apoPGHS-1 and reactivation by hydroxylamine; assay type: biochemical, ovine
ovine PGHS-1 [3] = target: T2, ovine PGHS-1; test: Time- and concentration-dependent inhibition of ovine PGHS-1, TLC assay (3 h preincubation); assay type: biochemical; settings: FIG. 5; 1 h at room temperature

| SMILES | inhibitory effect on PGHS-2 in activated macrophages compared with aspirin [1] | IC50 (human PGHS-2; 3 h at room temperature) | IC50 (PGHS-1)/IC50 (PGHS-2) (human PGHS-2) | IC50 (ovine PGHS-1 [2]) | inhibition of cyclooxygenase activity in activated macrophages [1] | other results |
| --- | --- | --- | --- | --- | --- | --- |
| CSc1ccccc1OC(C)=O [Compound 2, 2-acetoxythioanisole] | greater inhibitory effect on PGHS-2 in activated macrophages than aspirin | 250 µM | > 100 | – | – | inhibition of cyclooxygenase activity (apo- and holoPGHS-2): greater than 70%; inhibition of cyclooxygenase activity of holoPGHS-2 (holoPGHS-2; FIG. 7, pH 9, 10 mM inhibitor): greatly inhibited |
| CCCCCCCSc1ccccc1OC(C)=O [Compound 54, 2-Acetoxyphenylheptyl sulfide] | greater inhibitory effect on PGHS-2 in activated macrophages than aspirin | 2 µM | 3 | 6 µM | greatly inhibited | pH dependency of inhibition of cyclooxygenase activity of human holoPGHS-2 (holoPGHS-2; FIG. 10, pH 6, 7, 8, 9, 181 μM): greatest inhibition seen at pH 9; inhibition of cyclooxygenase activity of human holoPGHS-2 (in words) (human PGHS-2; FIG. 9, 3 h at room temperature): greatly inhibited |
| CCCCC#CCSc1ccccc1OC(C)=O [Compound 87, 2-Acetoxyphenyl-hept-2-ynyl sulfide] | – | – | 21 | > 17 µM | greatly inhibited | inhibition of cyclooxygenase activity of human holoPGHS-2 (in words) (human PGHS-2; FIGS. 12 and 13, 1-16 μM): greatly inhibited |
| CC(=O)n1ccnc1 [N-acetylimidazole] | – | – | – | – | – | inhibition of cyclooxygenase activity of apoPGHS-1 (apoPGHS-1): inhibits the cyclooxygenase activity of apoPGHS-1; reactivation after addition of hydroxylamine (apoPGHS-1; hydroxylamine added): the enzyme activity is regenerated |
| CC(=O)Oc1ccccc1C(=O)O [aspirin] | – | – | – | – | – | inhibitory effect on PGHS-1 versus PGHS-2 (ovine PGHS-1 [3]): greater inhibitory effect on PGHS-1 than PGHS-2 |
